PubChem BioAssay AID1259407 (Chemical Carcinogenesis Research Information System (CCRIS), 2018)
The source made the active and inactive calls. How the calls were made is not given here.

Tested on: CCRIS mutagenicity, Ames/micronucleus/aberration tests
Assay: CCRIS mutagenicity studies
[1] = Test System: AMES SALMONELLA TYPHIMURIUM, Strain/Indicator: TA98, Metabolic Activation: NONE, Method: STANDARD PLATE
[2] = Test System: AMES SALMONELLA TYPHIMURIUM, Strain/Indicator: TA100, Metabolic Activation: NONE, Method: STANDARD PLATE
[3] = Test System: AMES SALMONELLA TYPHIMURIUM, Strain/Indicator: TA1535, Metabolic Activation: NONE, Method: STANDARD PLATE
[4] = Test System: AMES SALMONELLA TYPHIMURIUM, Strain/Indicator: TA1537, Metabolic Activation: NONE, Method: STANDARD PLATE
[5] = Test System: AMES SALMONELLA TYPHIMURIUM, Strain/Indicator: TA98, Metabolic Activation: RAT, LIVER, S-9, AROCLOR 1254, Method: STANDARD PLATE
[6] = Test System: AMES SALMONELLA TYPHIMURIUM, Strain/Indicator: TA100, Metabolic Activation: RAT, LIVER, S-9, AROCLOR 1254, Method: STANDARD PLATE
[7] = Test System: AMES SALMONELLA TYPHIMURIUM, Strain/Indicator: TA102, Metabolic Activation: NONE, Method: STANDARD PLATE
[8] = Test System: AMES SALMONELLA TYPHIMURIUM, Strain/Indicator: TA102, Metabolic Activation: RAT, LIVER, S-9, AROCLOR 1254, Method: STANDARD PLATE

Question: What does the source list for `CCC(=O)Oc1ccc(/C(CC)=C(\CC)c2ccc(OC(=O)CC)cc2)cc1`?
Answer: mutagenic call [1]: inactive; negative; mutagenic call (Test System: AMES SALMONELLA TYPHIMURIUM, Strain/Indicator: TA98, Metabolic Activation: RAT, LIVER, S-9, Method: STANDARD PLATE): inactive; negative; mutagenic call [2]: inactive; negative; mutagenic call (Test System: AMES SALMONELLA TYPHIMURIUM, Strain/Indicator: TA100, Metabolic Activation: RAT, LIVER, S-9, Method: STANDARD PLATE): inactive; negative; mutagenic call [3]: inactive; negative; mutagenic call (Test System: AMES SALMONELLA TYPHIMURIUM, Strain/Indicator: TA1535, Metabolic Activation: RAT, LIVER, S-9, Method: STANDARD PLATE): inactive; negative; mutagenic call [4]: inactive; negative; mutagenic call (Test System: AMES SALMONELLA TYPHIMURIUM, Strain/Indicator: TA1537, Metabolic Activation: RAT, LIVER, S-9, Method: STANDARD PLATE): inactive; negative; mutagenic call (Test System: AMES SALMONELLA TYPHIMURIUM, Strain/Indicator: TA1538, Metabolic Activation: NONE, Method: STANDARD PLATE): inactive; negative; mutagenic call (Test System: AMES SALMONELLA TYPHIMURIUM, Strain/Indicator: TA1538, Metabolic Activation: RAT, LIVER, S-9, Method: STANDARD PLATE): inactive; negative

Question: Which mutagenic call [1] does the source give for `O=C1c2c(ccc3ccccc23)-c2cccc3cccc1c23` here?
Answer: Its mutagenic call is “inactive; negative”.

Question: What about the mutagenic call [2] of the same compound?
Answer: The mutagenic call was “inactive; negative”.

Question: What does the source list for `C\C=C(/C=C(C)/C=C(C)/C=C/C=C(\C)C(=O)[C@]12O[C@H]1[C@@](O)(CCO)NC2=O)C(=O)OC`?
Answer: mutagenic call (Test System: AMES SALMONELLA TYPHIMURIUM, Strain/Indicator: TA97A, Metabolic Activation: NONE, Method: STANDARD PLATE): inactive; negative; mutagenic call (Test System: AMES SALMONELLA TYPHIMURIUM, Strain/Indicator: TA97A, Metabolic Activation: RAT, LIVER, S-9, AROCLOR 1254, Method: STANDARD PLATE): active; positive; mutagenic call [1]: inactive; negative; mutagenic call [5]: active; positive; mutagenic call (Test System: AMES SALMONELLA TYPHIMURIUM, Strain/Indicator: TA100, Metabolic Activation: NONE, Method: PREINCUBATION): active; positive; mutagenic call [2]: inactive; negative; mutagenic call (Test System: AMES SALMONELLA TYPHIMURIUM, Strain/Indicator: TA100, Metabolic Activation: RAT, LIVER, MICROSOMES, PHENOBARBITAL, Method: PREINCUBATION): active; positive; mutagenic call [6]: active; positive; mutagenic call [7]: inactive; negative; mutagenic call [8]: inactive; negative

Question: What does the source list for `O=C1c2ccccc2Cc2ccccc21`?
Answer: mutagenic call [1]: active; positive; mutagenic call [2]: inactive; negative; mutagenic call [6]: inactive; negative

Question: Which mutagenic call [1] does the source give for `O=[N+]([O-])c1ccc2c(c1)-c1nc3ccccc3c3c1c-2nc1ccccc13` here?
Answer: The mutagenic call was “active; positive”.

Question: What about the mutagenic call (Test System: AMES SALMONELLA TYPHIMURIUM, Strain/Indicator: TA98, Metabolic Activation: RAT LIVER S-9, AROCLOR 1254, Method: STANDARD PLATE) of the same compound?
Answer: Its mutagenic call is “active; positive”.

Question: What about the mutagenic call (Test System: ESCHERICHIA COLI, Strain/Indicator: WP2 UVR A, Metabolic Activation: NONE, Method: STANDARD PLATE) of the same compound?
Answer: The mutagenic call was “inactive; negative”.

Question: And the mutagenic call (Test System: ESCHERICHIA COLI, Strain/Indicator: WP2 UVR A, Metabolic Activation: RAT LIVER S-9, AROCLOR 1254, Method: STANDARD PLATE)?
Answer: The mutagenic call was “inactive; negative”.

Question: Which results are given for `c1cc2ccc3ccnc4ccc(c1)c2c34`?
Answer: mutagenic call [1]: active; positive; mutagenic call [5]: active; positive; mutagenic call [2]: inactive; negative; mutagenic call [6]: active; positive

Question: Which results are given for `CCCON=O`?
Answer: mutagenic call (Test System: AMES SALMONELLA TYPHIMURIUM, Strain/Indicator: TA98, Metabolic Activation: HAMSTER, LIVER, S-9, AROCLOR 1254, Method: STANDARD PLATE): inactive; negative; mutagenic call [1]: inactive; negative; mutagenic call [5]: inactive; negative; mutagenic call (Test System: AMES SALMONELLA TYPHIMURIUM, Strain/Indicator: TA100, Metabolic Activation: HAMSTER, LIVER, S-9, AROCLOR 1254, Method: STANDARD PLATE): active; positive; mutagenic call [2]: inactive; negative; mutagenic call [6]: active; positive; mutagenic call (Test System: AMES SALMONELLA TYPHIMURIUM, Strain/Indicator: TA1535, Metabolic Activation: HAMSTER, LIVER, S-9, AROCLOR 1254, Method: STANDARD PLATE): active; positive; mutagenic call [3]: active; positive; mutagenic call (Test System: AMES SALMONELLA TYPHIMURIUM, Strain/Indicator: TA1535, Metabolic Activation: RAT, LIVER, S-9, AROCLOR 1254, Method: STANDARD PLATE): active; positive; mutagenic call (Test System: AMES SALMONELLA TYPHIMURIUM, Strain/Indicator: TA1537, Metabolic Activation: HAMSTER, LIVER, S-9, AROCLOR 1254, Method: STANDARD PLATE): inactive; negative; mutagenic call [4]: inactive; negative; mutagenic call (Test System: AMES SALMONELLA TYPHIMURIUM, Strain/Indicator: TA1537, Metabolic Activation: RAT, LIVER, S-9, AROCLOR 1254, Method: STANDARD PLATE): inactive; negative; mutagenic call (Test System: MOUSE LYMPHOMA, Strain/Indicator: L5178Y (TK+/TK-), Metabolic Activation: NONE, Method: SUSPENSION/PLATE): active; positive. reevaluation of results: inconclusive; mutagenic call (Test System: MOUSE LYMPHOMA, Strain/Indicator: L5178Y (TK+/TK-), Metabolic Activation: RAT, LIVER, S-9, AROCLOR 1254, Method: SUSPENSION/PLATE): active; positive. reevaluation of results: positive; mutagenic call (Test System: Mouse lymphoma, Strain/Indicator: L5178Y (tk+/tk-), Metabolic Activation: None, Method: Suspension/plate): active; positive; mutagenic call (Test System: Mouse lymphoma, Strain/Indicator: L5178Y (tk+/tk-), Metabolic Activation: Rat, Liver, S-9, Aroclor 1254, Method: Suspension/plate): active; positive

Question: How did the mutagenic call (Test System: AMES SALMONELLA TYPHIMURIUM, Strain/Indicator: TA98, Metabolic Activation: NONE, Method: DISK ASSAY) turn out when `CCC1(C(C)O)OC1(C(N)=O)C(=O)OC` (stereo unspecified) was run?
Answer: The mutagenic call was “inactive; negative”.

Question: And the mutagenic call [1]?
Answer: The mutagenic call was “inactive; negative”.

Question: What about the mutagenic call (Test System: AMES SALMONELLA TYPHIMURIUM, Strain/Indicator: TA98, Metabolic Activation: RAT, LIVER, S-9, AROCLOR 1254, Method: DISK ASSAY) of the same compound?
Answer: Its mutagenic call is “inactive; negative”.

Question: And the mutagenic call [5]?
Answer: The mutagenic call was “inactive; negative”.

Question: Which results are given for `COc1ccc(CN(CC[N+](C)(C)[O-])c2ccccn2)cc1`?
Answer: mutagenic call (Test System: AMES SALMONELLA TYPHIMURIUM, Strain/Indicator: TA97, Metabolic Activation: NONE, Method: STANDARD PLATE): inactive; negative; mutagenic call (Test System: AMES SALMONELLA TYPHIMURIUM, Strain/Indicator: TA97, Metabolic Activation: RAT, LIVER, S-9, AROCLOR 1254, Method: STANDARD PLATE): inactive; negative; mutagenic call [1]: inactive; negative; mutagenic call [5]: inactive; negative; mutagenic call [2]: inactive; negative; mutagenic call [6]: inactive; negative; mutagenic call [7]: inactive; negative; mutagenic call [8]: inactive; negative
